# Laboratory results taken from patent publication US20100184852A1, “ORGANIC COMPOUNDS FOR TREATMENT OF DISORDERS CONNECTED TO IMPAIRED NEUROTRANSMISSION” (priority 2006, published 2010).
# Assays:
# mice [1] = experiment: Elevated plus maze test; type: in vivo, mouse; conditions: for OPEN ARM Number of entries, Mean ± sem / OPEN ARM Time spent (s), Mean ± sem: 5 h and 1 h before test; for OPEN ARM Number of entries, % change / OPEN ARM Time spent, % change: versus vehicle
# Text: The method, which detects anxiolytic activity, follows that described by Handley et al, 1984 (Naunyn-Schm Arch Pharm 387: 1-5. Rodents avoid open spaces (the open arms of an elevated plus-maze). Anxiolytics increase exploratory activity in the […].
# The maze consists of 4 arms of equal length and width (14×5 cm) arranged in the form of a plus sign (+). Two opposite arms are enclosed by 12 cm high walls (closed arms). The 2 other arms have no walls (open arms). The maze is raised 56 cm above the floor. A mouse is placed in the centre of the plus-maze and left to explore for 5 minutes. The number of entries into the open and closed arms and the time spent in the open arms is recorded. 10 mice were studied per group. The test was performed blind.
# 3-n-Butylphthalide was tested at doses of 10, 30, and 80 mg/kg body weight.
# [2] = biological target: T1, Human recombinant norepinephrine transporter (Homo sapiens, UniProt P23975); experiment: Norepinephrine uptake inhibition in MDCK cells; type: cell-based; conditions: 25 nM [3H]Norepinephrine, 10 minutes
# T1 construct: expressed in transfected cells; host or cells: dog kidney MDCK cells
# Description: Human recombinant norepinephrine transporter stably expressed dog kidney MDCK cells are plated one day before the assay. […] Cells in the well were then rinsed twice, solubilized with 1% SDS lysis buffer and the lysate was counted to determine [^3H]Norepinephrine uptake. Specific signal was determined in the presence of 10 μM desipramine. Reduction of [^3H]Norepinephrine uptake by 50 percent or more (≧50%) relative to vehicle controls indicates significant inhibitory activity. Compounds were screened at 10, 1, 0.1, 0.01 and 0.001 μM.
# mice [3] = experiment: Primary observation (Irwin) test in the mouse; type: in vivo; conditions: for overall effect in the Irwin test: all doses tested
# Description: The method, which detects the first toxic dose, the active dose-range and the principal effects of a test substance on behavior and physiological function, follows that described by Irwin 1968 Psychopharmaco, 13:222-257,
# 3 treated groups were compared with the same control at any one time. All animals within a treatment group were observed simultaneously.
# Behavioral modifications, physiological and neurotoxicity symptoms, pupil diameter and rectal temperature were recorded according to a standardized observation grid derived from that of Irwin, supra. The grid contains the following items: lethality*, convulsions*, tremor*, Straub*, sedation, excitation, abnormal gait* (rolling, tip-toe), jumps*, motor incoordination*, writhes*, piloerection*, stereotypies* (sniffing, chewing, head movements), head twitches*, scratching*, respiration*, aggressiveness*, fear, reactivity to touch, muscle tone, loss of righting reflex, ptosis, exopthalmos, loss of grasping, akinesia, catalepsy, loss of traction, loss of corneal reflex, analgesia, defecation, salivation, lacrimation, pupil diameter (Unit=1/45 mm) and rectal temperature.
# Observations were performed 15, 30, 60, 120 and 180 minutes after administration of the test substance and also 24 hours later. The symptoms marked (*) were observed continuously from 0 to 15 minutes after administration. 5 mice were studied per group.
# 3-Butylphthalide (98.5% purity) was solubilized in 3% DMSO, 3% Tween 80 in saline (0.9% w/v NaCl) and injected into mice intraperitoneally.
# mice [4] = experiment: Porsolt's swim test (behavioural despair test); type: in vivo, mouse; conditions: for Duration of immobility [seconds] ± Standard Error of Mean: last 4 of 6 minutes
# Description: The “Behavioural Despair Test” or “Porsolt's Forced Swim Test” is a validated animal model for depression (see T, Nagatsu 2004 Neuro Toxicology, 25:11-20, and Porsolt et al. 1977, Arch. Int. Pharmacodyn., 229: 327-336). It responds to enhancement of the trans-mission of several neurotransmitters including serotonine, dopamine and noradrenaline.
# The test, which detects antidepressant activity, was carried out as described by Porsolt et al supra. Mice which are forced to swim in a situation from which they cannot escape rapidly become immobile. Antidepressants decrease the duration of immobility.
# Mice were individually placed in a cylinder (Height=24 cm, Diameter=13 cm) containing 10 cm water (22° C.) from which they could not escape. The mice were placed in the water for 6 minutes and the duration of immobility during the last 4 minutes was measured.
# 10 mice were studied per each of the four groups. The test was performed blind, i.e. the person carrying out the experiment was different from the person injecting the mice and didn't thus know to which of the four groups each mouse belonged.
# 3-n-butylphthalide (98.5% purity) was evaluated at 3 doses each: at 10, 30 and 80 mg/kg body weight, administered intraperitoneally 30 minutes before the test, and compared with a control group. The thus administered 3-n-butylphthalide was dissolved in a saline solution containing 3 weight-% DMSO and 3 weight-% Tween® 80 (so called “vehicle”), To the control group the vehicle consisting of the saline solution containing 3 weight-% DMSO and 3 weight-% Tween® 80 was administered intraperitoneally.
# [5] = biological target: T2, human dopamine transporter (hDAT) (Homo sapiens, UniProt Q01959); experiment: Dopamine uptake inhibition in CHO-Ki/hDAT cells; type: cell-based; conditions: 50 nM [3H]Dopamine, 10 minutes
# T2 construct: expressed in transfected cells; host or cells: CHO-Ki (CHO-K1)
# Description: CHO-Ki/hDAT cells expressing the human dopamine transporter (hDAT) were plated before the assay. Cells (2×10^5/ml) were incubated with the compound of the formula I (3-n-butylphthalide) and/or vehicle in modified Tris-HEPES buffer pH 7.1 at 25° C. for 20 minutes before addition of 50 nM [^3H]Dopamine for 10 minutes. Specific signal was determined in the presence of 10 μM nomifensine. Cells were then solubilized with 1% […] lysis buffer. Reduction of [^3H]Dopamine uptake by 50 percent or more 50%) relative to vehicle controls indicates significant inhibitory activity. Compounds were screened at 10, 1, 0.1, 0.01 and 0.001 μM.
# [6] = 100 mg/kg, 15 to 60 minutes after administration
# T2 sequence (Q01959 whole entry): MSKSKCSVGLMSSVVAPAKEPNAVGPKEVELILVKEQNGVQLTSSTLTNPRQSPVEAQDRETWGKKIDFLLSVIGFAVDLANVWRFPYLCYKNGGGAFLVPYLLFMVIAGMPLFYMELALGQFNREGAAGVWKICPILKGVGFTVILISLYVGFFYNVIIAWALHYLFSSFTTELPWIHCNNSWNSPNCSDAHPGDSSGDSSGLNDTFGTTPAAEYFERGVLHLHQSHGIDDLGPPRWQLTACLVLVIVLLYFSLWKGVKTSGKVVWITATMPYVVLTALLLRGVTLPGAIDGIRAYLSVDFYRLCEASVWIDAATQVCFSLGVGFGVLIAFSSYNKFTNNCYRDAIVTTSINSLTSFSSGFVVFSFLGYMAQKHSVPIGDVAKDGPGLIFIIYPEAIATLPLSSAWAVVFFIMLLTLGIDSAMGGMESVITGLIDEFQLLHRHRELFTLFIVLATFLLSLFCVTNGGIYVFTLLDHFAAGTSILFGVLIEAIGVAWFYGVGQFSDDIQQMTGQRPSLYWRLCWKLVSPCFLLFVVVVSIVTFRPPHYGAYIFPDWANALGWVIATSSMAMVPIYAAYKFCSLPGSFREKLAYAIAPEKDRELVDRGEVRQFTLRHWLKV
# T1 sequence (P23975 whole entry): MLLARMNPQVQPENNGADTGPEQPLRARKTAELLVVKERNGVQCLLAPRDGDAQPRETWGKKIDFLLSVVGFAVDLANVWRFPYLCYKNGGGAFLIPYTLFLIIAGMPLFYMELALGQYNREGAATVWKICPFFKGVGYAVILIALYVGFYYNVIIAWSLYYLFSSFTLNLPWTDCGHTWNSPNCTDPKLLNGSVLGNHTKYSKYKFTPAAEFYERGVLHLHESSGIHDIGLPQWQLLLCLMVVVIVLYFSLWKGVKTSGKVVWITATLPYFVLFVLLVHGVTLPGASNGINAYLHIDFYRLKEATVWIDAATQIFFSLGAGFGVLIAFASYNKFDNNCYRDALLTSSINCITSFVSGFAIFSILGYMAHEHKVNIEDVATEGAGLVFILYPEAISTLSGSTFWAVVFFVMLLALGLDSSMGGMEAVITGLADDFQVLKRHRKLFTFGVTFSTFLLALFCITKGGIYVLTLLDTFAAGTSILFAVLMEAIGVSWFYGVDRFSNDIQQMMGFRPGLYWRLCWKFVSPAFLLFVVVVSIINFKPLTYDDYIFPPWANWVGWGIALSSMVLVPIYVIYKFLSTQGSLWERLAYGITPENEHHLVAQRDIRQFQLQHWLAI
structure (smiles),measurement,setting,value
"CCCC[C@@H]1OC(=O)c2ccccc21 (stereo in doubt) [3-n-butylphthalide, 3-n-Butylphthalide]","OPEN ARM Number of entries, Mean ± sem",mice [1]; 10 mg/kg p.o. −24 h,3.5 ± 0.7
same,"OPEN ARM Time spent (s), Mean ± sem",mice [1]; 10 mg/kg p.o. −24 h,24.3 ± 4.6 s
same,"OPEN ARM Number of entries, % change",mice [1]; 10 mg/kg p.o.,+46%
same,"OPEN ARM Time spent, % change",mice [1]; 10 mg/kg p.o.,+34%
same,"OPEN ARM Number of entries, Mean ± sem",mice [1]; 30 mg/kg p.o. −24 h,3.1 ± 0.5
same,"OPEN ARM Time spent (s), Mean ± sem",mice [1]; 30 mg/kg p.o. −24 h,23.0 ± 3.8 s
same,"OPEN ARM Number of entries, % change",mice [1]; 30 mg/kg p.o.,+29%
same,"OPEN ARM Time spent, % change",mice [1]; 30 mg/kg p.o.,+26%
same,"OPEN ARM Number of entries, Mean ± sem",mice [1]; 80 mg/kg p.o. −24 h,3.0 ± 0.8
same,"OPEN ARM Time spent (s), Mean ± sem",mice [1]; 80 mg/kg p.o. −24 h,26.4 ± 5.3 s
same,"OPEN ARM Number of entries, % change",mice [1]; 80 mg/kg p.o.,+25%
same,"OPEN ARM Time spent, % change",mice [1]; 80 mg/kg p.o.,+45%
same,anxiolytic activity,"mice [1]; 10, 30 and 80 mg/kg",moderate anxiolytic activity
same,entries into the closed arm,"mice [1]; 10, 30 and 80 mg/kg",no effect
same,number of entries and time spent in the open arm (overall),"mice [1]; 10, 30 and 80 mg/kg",trend to moderately increase
same,IC50,[2],23.7 µM
same,muscle tone,"mice [3]; 100 mg/kg, 15 to 60 minutes",reduced muscle tone
same,sedation,mice [3]; [6],slight sedative effects
same,muscle tone,mice [3]; 200 mg/kg,reduced muscle tone
same,fear,"mice [3]; 200 mg/kg, after 60 minutes",reduced fear
same,sedation,"mice [3]; 200 mg/kg, up to 120 minutes",moderate sedative effects
same,sedation,"mice [3]; 300 mg/kg, 15 minutes and 30 minutes",marked sedation
same,sedation,"mice [3]; 300 mg/kg, 60 minutes and 120 minutes",moderate sedation
same,fear,"mice [3]; 300 mg/kg, 120 minutes",reduced
same,muscle tone,"mice [3]; 300 mg/kg, 120 minutes",reduced
same,sedation,"mice [3]; 300 mg/kg, 180 minutes",slight sedation
same,overall effect in the Irwin test,mice [3],dose dependent sedative and muscle relaxant effect
same,overall effect in the Irwin test,mice [3]; listed as 3-butylphthalide,"dose dependent sedative, fear reducing and muscle relaxant effect"
same,Duration of immobility [seconds] ± Standard Error of Mean,mice [4]; 10 mg/kg body weight,132.4 ± 9.3 s
same,Duration of immobility [seconds] ± Standard Error of Mean,mice [4]; 30 mg/kg body weight,128.0 ± 15.3 s
same,Duration of immobility [seconds] ± Standard Error of Mean,mice [4]; 80 mg/kg body weight,129.0 ± 15.4 s
same,reduction of the immobility time,"mice [4]; between 10 and 80 mg/kg, tendency",approximately 18%
same,IC50,[5],22 µM
CCC/C=C1\OC(=O)C2=C1CCC=C2 [Ligustilide],sedation,"mice [3]; 30 mg/kg, 30 minutes",slight sedation
same,muscle tone,"mice [3]; 100 mg/kg, 15 to 60 minutes",decreased muscle tone
same,sedation,mice [3]; [6],slight sedation
same,muscle tone,mice [3]; 200 mg/kg,decreased muscle tone
same,sedation,"mice [3]; 200 mg/kg, 180 minutes",slight
same,sedation,"mice [3]; 200 mg/kg, up to 120 minutes",slight-to-moderate
same,sedation,"mice [3]; 300 mg/kg, 15 to 60 minutes",moderate
same,muscle tone,"mice [3]; 300 mg/kg, 15 to 180 minutes",decreased muscle tone
same,sedation,"mice [3]; 300 mg/kg, 120 to 180 minutes",slight
same,overall effect in the Irwin test,mice [3],dose dependent sedative and muscle relaxant effect
same,Duration of immobility [seconds] ± Standard Error of Mean,mice [4]; 10 mg/kg body weight,128.9 ± 15.1 s
same,reduction of the immobility time,"mice [4]; 10 mg/kg, tendency",approx. 18%
same,Duration of immobility [seconds] ± Standard Error of Mean,mice [4]; 30 mg/kg body weight,164.2 ± 15.5 s
same,reduction of the immobility time,mice [4]; higher doses (30 and 80 mg/kg),not at the higher doses
